Experimental data from patent publication US20250064056A1, “CONTACT PHEROMONE-CONTAINING COMPOSITION FOR CONTROLLING THRIPS, KIT COMPOSITION FOR CONTROLLING THRIPS, AND METHOD OF CONTROLLING THRIPS BY USING SAME” (Andong National University Industry-Academic Cooperation …, priority 2023, published 2025).

How the values were obtained:
Format in all cases: in vivo
[1] = system: Frankliniella occidentalis; assay: Outdoor pest control test on open-field peppers, F. occidentalis; settings: for Contol efficacy (%) (control value) / Survival (%) Mean / Survival (%) I / Survival (%) II / Survival (%) III: 3 days after treatment, dose a.i. μg/mL: 7MT 100, Spinetoram 12.5; for Survival (%) Mean: mean of 3 replicates; for Survival (%) I: replicate I; for Survival (%) II: replicate II; for Survival (%) III: replicate III
Protocol: (§1) Each treatment was repeated three times using the egg mass method in open pepper production areas located in Songcheon-dong, Andong-si, Gyeongsangbuk-do. Each test group was pepper individuals, and the distance between these individuals was maintained at least 6 m. The amount of chemical agent sprayed on each pepper individual was 30 mL, and the chemical agent was sufficiently sprayed on the entire peppers. […] […] The control group was treated with a distilled chemical agent. The density of thrips was calculated before treatment and on days 1 and 3 after treatment. The classification of these three different thrips was carried out by using the shape identification method presented by Kim et al. (2021).
(§2) For the indoor behavioral experiment, one-way ANOVA analysis was performed using PROC GLM (SAS Institute, 1989). The effectiveness of outdoor pest control was confirmed by calculating the survival rate and performing […] and two-way ANOVA analysis. Comparison between treatment means was determined based on a Type I error probability of 0.05 using an LSD method.
(§3) A test was conducted to check the outdoor control efficiency by adding a contact pheromone causing behavior disruption to Spinetoram having a relatively high control efficiency against thrips. At the end of May 2023, when the test was conducted, Frankliniella occidentalis and Frankliniella intonsa appeared around peppers in open areas in the Andong region. By taking advantage of this situation, treatment with a chemical agent alone and treatment with a chemical agent/contact pheromone mixture were implemented. In the untreated control group, an increase in the density of two thrips was observed. However, in the mixed treatment with Spinetoram, an overall decrease in the density was clearly observed.
(§4) To analyze the results in detail, a control value on the 3rd day of treatment was calculated. […] The average survival rate was lowered in all treatment cases compared to no treatment cases. […] At this time, when the contact pheromone was added, the control value increased for both thrips.

[2] = system: Frankliniella intonsa; assay: Outdoor pest control test on open-field peppers, F. intonsa; settings: for Contol efficacy (%) (control value) / Survival (%) Mean / Survival (%) I / Survival (%) II / Survival (%) III: 3 days after treatment, dose a.i. μg/mL: 7MT 100, Spinetoram 12.5; for Survival (%) Mean: mean of 3 replicates; for Survival (%) I: replicate I; for Survival (%) II: replicate II; for Survival (%) III: replicate III
Protocol: as §1, §2, §3, §4

[3] = system: Total thrips; assay: Outdoor pest control test on open-field peppers, total thrips; settings: 3 days after treatment, dose a.i. μg/mL: 7MT 100, Spinetoram 12.5; for Survival (%) Mean: mean of 3 replicates; for Survival (%) I: replicate I; for Survival (%) II: replicate II; for Survival (%) III: replicate III
Protocol: as §1, §2, §3, §4

[4] = system: Frankliniella occidentalis; assay: Behavioral test (petri dish, treated vs control kidney bean feed), F. occidentalis; settings: 10 μL on filter paper, 10 minutes, FIG. 1B
Protocol: (§5) FIGS. 1A, 1B, and 1C show the results of behavioral tests in a container for behavior analysis (A) for two types of thrips (F. occidentalis (B) and F. intonsa (C)), in the container for behavior analysis (A), a […] placed on a filter paper disk was treated with 7-methyltricosane (7TM), the control diet was treated with acid solvent, after 10 minutes, the number of thrips that reached each feed was counted, each treatment was repeated four times by exchanging the positions of the treatment and control groups, asterisk indicates a significant difference with type I error=0.05 (LSD test), and “NS” means no significant difference; and
(§6) A filter paper was unfolded in the behavior test site, and two kidney beans were placed away at a distance of 50 mm as bait. Each of the test substances was applied on top of each feed. In the test substance treatment, 10 μL of 7TM substance was sprayed onto 5 mm circular filter paper. In the case of the control group, the same volume of hexane was sprayed onto a filter paper as a test substance. Each circular filter paper differently treated was placed on any one of the two kidney beans. Next, test individuals were placed in the center 40 mm away from both feed sources. Afterward, the individuals having reached each feed were counted for 10 minutes at room temperature. 10 individuals were used in each test, and each test was repeated 4 times. The positions of the control group and the treatment group were exchanged in each repetition. […]
(§7) For the indoor behavioral experiment, one-way ANOVA analysis was performed using PROC GLM (SAS Institute, 1989). […] Comparison between treatment means was determined based on a Type I error probability of 0.05 using an LSD method.
(§8) To analyze the behavioral responses of thrips with affinity for a contact pheromone, a behavior analysis container (shown in FIG. 1(A)) was manufactured using a petri dish. Thrips were prepared to be near the treated feed, and after inducing the behavioral responses for 10 minutes, some of the thrips staying near the pheromone-treated feed were counted.

[5] = system: Frankliniella intonsa; assay: Behavioral test (petri dish, treated vs control kidney bean feed), F. intonsa; settings: 10 μL on filter paper, 10 minutes, FIG. 1C
Protocol: as §5, §6, §7, §8

[6] = contact pheromone alone, 3rd day of treatment

| Compound | Contol efficacy (%) (control value) [1] | Survival (%) Mean [1] | Survival (%) I [1] | Survival (%) II [1] | Survival (%) III [1] | Contol efficacy (%) (control value) [2] | Survival (%) Mean [2] | Survival (%) I [2] | Survival (%) II [2] | Survival (%) III [2] | Contol efficacy (%) (control value) [3] | Survival (%) Mean [3] | Survival (%) I [3] | Survival (%) II [3] | Survival (%) III [3] | further results |
| --- | --- | --- | --- | --- | --- | --- | --- | --- | --- | --- | --- | --- | --- | --- | --- | --- |
| CCCCCCCCCCCCCCCCC(C)CCCCCC (centres unmarked) [7MT, 7-Methyltricosane] | 31.2% | 358.3% | 500.0% | 300.0% | 275.0% | 32.2% | 115.7% | 133.3% | 150.0% | 63.6% | 12.4% | 222.2% | 300.0% | 233.3% | 133.3% | density of thrips vs no treatment (in words) [1, 6]: it was not; density of thrips vs no treatment (in words) [2, 6]: statistically significantly reduced; behavioral response to pheromone-treated feed ([4]; F. occidentalis adult females): high preference; behavioral response to pheromone-treated feed ([4]; F. occidentalis adult males): avoiding feed sprayed with the contact pheromone; behavioral response to pheromone-treated feed ([4]; F. occidentalis second-instar larvae): did not show specific selection behavior; behavioral response to pheromone-treated feed ([5]; F. intonsa adult females): high preference; behavioral response to pheromone-treated feed ([5]; F. intonsa adult males): avoiding feed sprayed with the contact pheromone; behavioral response to pheromone-treated feed ([5]; F. intonsa second-instar larvae): did not show specific selection behavior |
| Spinetoram [reference compound] | 71.9% | 146.4% | 150.0% | 175.0% | 114.3% | 80.3% | 33.6% | 40.0% | 22.2% | 38.5% | 76.2% | 60.5% | 73.3% | 46.2% | 61.1% | – |
